Values joined by “and” are separate entries in the source; they are usually repeats but may differ in a detail not shown here. Identical values can stand only once. Like-named read-outs stand apart in the source and are kept apart here.
Experiments:
[1] = target: rat anti-2,4-dinitrophenyl IgG (IgG^DNP, clone LO-DNP-2); assay: Monovalent dissociation constant of hapten for anti-2,4-DNP IgG, method not given; assay type: binding; settings: read-out: monovalent Kd (Kd^affinity) of hapten for IgG^DNP
[2] = test system: anti-2,4-DNP IgG (clone LO-DNP-2); assay: SE-HPLC of formation and dissociation of cyclic IgG aggregates; assay type: biochemical, rat; settings: for dissociation of IgG aggregates by excess monovalent hapten: about 1 mM monovalent hapten, SE-HPLC
Procedure: We used size-exclusion chromatography (SE-HPLC) to follow the purification process. This analytical technique has the advantage that we can resolve monomeric, dimeric, trimeric, and tetrameric antibody aggregates on the column. It has the disadvantage that these aggregates must be kinetically stable (in the absence of competing monovalent hapten) over the time required to carry out a separation (retention time, tr˜15 min).
Validation of Size-Exclusion Chromatography (SE-HPLC) to Examine Aggregates of IgG. Size-exclusion chromatography (SE-HPLC) can resolve the cyclic aggregates of antibodies from each other and from monomeric IgG (FIG. 6). The commercially available purified IgG gave predominantly one peak by SE-HPLC (FIG. 6a) at a retention time (˜15.6 min) consistent with the size of monomeric IgG (˜150 kDa) based on a molecular weight calibration plot (FIG. 3). We formed aggregates in >90% conversion by incubating IgG (2 μM) with 5-10 equivalents of bi and trivalent molecules in chart 1 for 12 hours. […] These antibody aggregates dissociated rapidly (<1 min) in the presence of excess monovalent hapten (6) (1 μM anti-2,4-DNP; 1 μM 1; 1000 μM 6) (FIG. 6c).

[3] = target: IgG from clone (LO-DNP-2), anti-DNP; assay: Fluorescence titration (tryptophan quenching) for the monovalent dissociation constant; assay type: binding, rat; settings: read-out: monovalent dissociation constant (Kd^affinity)
Procedure: Determination of dissociation constant of antibody and 2,4-DNP. The binding of DNP derivatives to anti-DNP quenches the fluorescence of tryptophan residues of the antibody. We conducted a fluorescence titration to determine the monovalent dissociation constant (Kd^affinity) of the IgG from clone (LO-DNP-2) for Ac2DNP-Lys, and obtained a value of 0.40±0.08 nM.

## 2,4-dinitrophenyl [2,4-DNP]
[1]; listed as DNP
  Kd: 8 nM and ~8 nM

## 4-nitrophenyl [4-NP]
[1]
  Kd: 500 nM and ~500 nM

## NCCCC[C@H](Nc1ccc([N+](=O)[O-])cc1[N+](=O)[O-])C(=O)O [compound 6, 2,4-dinitrophenyl lysine]
[2]; 1 μM anti-2,4-DNP, 1 μM 1, 1000 μM 6
  time for dissociation of antibody aggregates by excess monovalent hapten: < 1 min
[2]
  dissociation of IgG aggregates by excess monovalent hapten: completely dissociated

## O=[N+]([O-])c1ccc(OC2O[C@H](CO)[C@@H](O)[C@H](O)[C@H]2O)cc1 (stereo partly shown) [compound 7, 4-nitrophenylglucose]
[1]
  Kd: ~500 nM
[2]
  dissociation of IgG aggregates by excess monovalent hapten: completely dissociated

## Ac2DNP-Lys
[3]
  Kd: 0.4 ± 0.08 nM

Source: patent US8124743B2, “Purification of a bivalently active antibody using a non-chromatographic method” (President and Fellows of Harvard College, priority 2006, dated 2012)
